# pEC50: −log10 of the molar value. Like-named read-outs stand apart in the source and are kept apart here.
# What was measured:
# Poliovirus 3 = experiment: microbe, parasite or virus in culture; format: cell-based; details: Enterovirus C, Vero 76
# [1] = tested on: Human Cytomegalovirus (HCMV); experiment: HCMV EC50 in MRC-5 cells (qPCR of intracellular CMV DNA); format: cell-based
# Protocol: Costar 96-well tissue culture plates were seeded with 20,000 MRC-5 cells/well in EMEM containing 2% Hyclone Standard Fetal Bovine Serum and 1% Hyclone Penicillin and Streptomycin. Outer wells were not used to minimize the edge-effect produced by extended incubations. Cells were inoculated with HCMV at an MOI of 0.01. Serial dilutions of test compounds were added to the cells and plates were incubated for 7 days at 37° C. in 5% CO2. […] Culture medium was gently removed from infected cells after the 7-day incubation. The cells were rinsed twice with ice-cold PBS, and then freeze/thawed once. Each well was incubated with 200 μL lysis buffer for 2 hours at 55° C. Lysis buffer included 0.5 mg/mL protease K, 50 mM KCl, 10 mM Tris-Cl pH 8.0, 2.5 mM MgCl2, 0.45% IGEPAL, and 0.45% Tween-20 dissolved in DEPC-treated water. Intracellular CMV DNA was measured by quantitative polymerase chain reaction (qPCR) using forward and reverse HCMV PCR primers, and a FAM-labeled probe. Absolute quantitation of viral copy number was performed using a standard curve with dilutions of a HCMV DNA amplicon containing sequences homologous to the amplified fragment. The following qPCR amplification conditions were used: 1 cycle at 95° C. for 10 minutes, followed by 45 cycles of 95° C. for 15 seconds and 60° C. for 60 seconds. The qPCR reactions were performed using an Applied Biosystems 7500 real Time PCR System. Gen 5 software (BioTek Instruments, Inc.) was used to calculate the concentration which inhibited the viral DNA levels of HCMV-infected MRC-5 cells by 50% (EC50).
# [2] = tested on: Influenza virus B/FL/4/2006; experiment: microbe, parasite or virus in culture; format: cell-based; details: unidentified influenza virus, MDCK, read-out: B/FL/4/2006 (EC50, μM)
# [3] = Cytotoxicity in BCBL-1 cells; format: cell-based; details: human, cell line BCBL-1 (HHV-8 row)
# Protocol: Cell viability in all assays with lymphocytes was assessed with the CellTiter-Glo Luminescent Cell Viability Assay (Promega). Briefly, assay plates were incubated at ambient temperature for 30 min then 50 µl of CellTiter-Glo reagent was added to each well and the plates were mixed for 2 min on an orbital shaker to lyse the cells. Plates were then incubated for an additional 10 min at ambient temperature and the luminescence was quantified on a luminometer. Standard methods were used to calculate drug concentrations that inhibited the proliferation of Akata, HSB-2, BCLB-1, or Molt-3 cells by 50% (CC50).
# [4] = tested on: HCMV UL54 resistant mutant GDG^RP53; experiment: microbe, parasite or virus in culture; format: cell-based, Human Cytomegalovirus (HCMV); details: Human betaherpesvirus 5, Fibroblast
# [5] = Cytotoxicity (CC50) in Vero cells; format: cell-based; details: African green monkey, cell line Vero (BKV row)
# Protocol: Costar 96-well tissue culture plates were seeded with 10,000 Vero cells (ATCC)/well in DMEM (ATCC, Cat 30-2002) containing 2% Hyclone Standard Fetal Bovine Serum (FBS, Cat 5H30088.03) and 1% Hyclone Penicillin and Streptomycin (Cat SV30010). Outer wells were not used to minimize the edge-effect produced by extended incubations. Serial dilutions of test compounds were added to the cells and plates were incubated for 7 days at 37° C. in 5% CO2. After 7 days of incubation 40 μL of Cell Titer 96® Aqueous MTS Reagent (Promega, G111) was added as directed by manufacturer to the 200 iut media in each well and incubated at 37° C. until the untreated-cell controls developed an 490 nm absorbance between 1.1 and 1.8. The final absorbance readings were read using a BioTek Synergy 2, and Gen 5 software (BioTek Instruments, Inc.) was used to calculate the concentration which inhibited Vero cells by 50% (CC50).
# in vitro = details: human
smiles,measurement,setting,value
CC(C)CCCCCCCCCCCCCCOCCCOP(=O)(O)COC(CO)Cn1ccc(=O)[nH]c1=O (centres unmarked) [Compound 12],pEC50,Poliovirus 3,5.48
same,pEC50,"[1]; Human betaherpesvirus 5, MRC5, HCMV in MRC-5 cells (Table 7), read-out: CMV EC50",7.57
same,pEC50,"[1]; Human betaherpesvirus 5, MRC5, Mean XC50 (Table 9), read-out: HCMV EC50",7.77
same,pEC50,"[1]; Human betaherpesvirus 5, Virus HCMV, cell line MRC5 (Table 8), read-out: EC50",7.77
same,EC50,[2],> 4 µM
same,CC50,[3],> 10 µM
same,EC50,"[4]; read-out: EC50 μM, Virus GDG^RP53, human foreskin fibroblast cells",~0.171 µM
same,EC90,[4]; read-out: EC90 μM,1.55 µM
same,CC50 at 7 days,[5],93 µM
same,CC50,in vitro,> 20 µM
same,CC50,in vitro; CC50 (μM),36.9 µM

# From patent US20170029451A1, “BRANCHED CHAIN ACYCLIC NUCLEOSIDE PHOSPHONATE ESTERS AND METHODS OF SYNTHESIS AND USES THEREOF” (CHIMERIX, INC., priority 2013, published 2017)
